Source: ChEMBL document CHEMBL1201862, “PubChem BioAssay data set” (2004)
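Interpolation was linear, between the two tested concentrations surrounding the appropriate level; five concentrations were tested over 48 hours in 96-well plates. At the GI50, growth is halved.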 Active and inactive are the calls of the source. Cut-off read from the data, not from the text of the source: active = GI50 up to about 1.1 µM and inactive = higher.

What was measured:
Test in all cases: NCI anticancer screen, dose series, 48 h
786-0 = system: 786-0
CCRF-CEM = system: CCRF-CEM
COLO 205 = system: COLO 205
DU-145 = system: DU-145
HCT-15 = system: HCT-15
HOP-62 = system: HOP-62
HT-29 = system: HT-29
K562 = system: K562
LOX IMVI = system: LOX IMVI
MCF7 = system: MCF7
NCI-H522 = system: NCI-H522
OVCAR-3 = system: OVCAR-3
RPMI-8226 = system: RPMI-8226
RXF 393 = system: RXF 393
SF-539 = system: SF-539
SNB-19 = system: SNB-19
SNB-75 = system: SNB-75
SW-620 = system: SW-620
U-251 = system: U-251
HL-60 = system: HL-60

Row | SMILES | GI50 (786-0) | GI50 (CCRF-CEM) | GI50 (COLO 205) | GI50 (DU-145) | GI50 (HCT-15) | GI50 (HOP-62) | GI50 (HT-29) | GI50 (K562) | GI50 (LOX IMVI) | GI50 (MCF7) | GI50 (NCI-H522) | GI50 (OVCAR-3) | GI50 (RPMI-8226) | GI50 (RXF 393) | GI50 (SF-539) | GI50 (SNB-19) | GI50 (SNB-75) | GI50 (SW-620) | GI50 (U-251) | GI50 (HL-60)
1 | O=C1NC(=S)N/C1=C\c1cccs1 | > 100 µM (inactive) | > 100 µM (inactive) | > 100 µM (inactive) | > 100 µM (inactive) | > 100 µM | > 100 µM (inactive) | > 100 µM (inactive) | > 100 µM (inactive) | > 100 µM (inactive) | > 100 µM (inactive) | > 100 µM (inactive) | > 100 µM (inactive) | > 100 µM (inactive) | > 100 µM (inactive) | > 100 µM (inactive) | > 100 µM (inactive) | > 100 µM (inactive) | > 100 µM (inactive) | > 100 µM (inactive) | –
2 | Cc1cc(C)c2c(=O)n(CN3CCN(c4ccccc4)CC3)sc2n1 | 16.8 µM (inactive) | 9.59 µM (inactive) | 19.5 µM (inactive) | 22.2 µM (inactive) | 22.5 µM | 34.1 µM (inactive) | 18.7 µM (inactive) | 30 µM (inactive) | 20.7 µM (inactive) | 29.7 µM (inactive) | 14.4 µM (inactive) | 36.6 µM (inactive) | – | 12.6 µM (inactive) | 18.6 µM (inactive) | > 100 µM (inactive) | 15.8 µM (inactive) | 29.2 µM (inactive) | 23.4 µM (inactive) | 9.71 µM (inactive)
3 | CC(C)=CCC/C(C)=C/CC/C(C)=C/CC(CO)N(C)CC/C=C(\C)CCC=C(C)C (centres undefined) | 1.91 µM (inactive) | 3.03 µM (inactive) | 2.42 µM (inactive) | 11.5 µM (inactive) | 3.78 µM | 4.32 µM (inactive) | 3.5 µM (inactive) | 1.6 µM (inactive) | 2.92 µM (inactive) | 2.11 µM (inactive) | 2.09 µM (inactive) | 14.2 µM (inactive) | 3.09 µM (inactive) | 4.82 µM (inactive) | 3.06 µM (inactive) | 8.91 µM (inactive) | 12 µM (inactive) | 3.62 µM (inactive) | 3.56 µM (inactive) | –
4 | CCC1(CC)C(=O)N(C(=O)c2ccc(Cl)cc2)N(C(=O)c2ccccc2Cl)C1=O | 56.8 µM (inactive) | 40.8 µM (inactive) | > 100 µM (inactive) | > 100 µM (inactive) | 41 µM | 46 µM (inactive) | 10.7 µM (inactive) | 45.7 µM (inactive) | 21 µM (inactive) | 43.1 µM (inactive) | 14.4 µM (inactive) | 27.1 µM (inactive) | 25.8 µM (inactive) | > 100 µM (inactive) | – | 66.1 µM (inactive) | 16.1 µM (inactive) | 29.4 µM (inactive) | 33.3 µM (inactive) | 37.7 µM (inactive)
5 | CC(C)[Si]1(C(C)C)OCC2OC(n3ccc(=O)[nH]c3=O)C(O)(CO)C2O[Si](C(C)C)(C(C)C)O1 (centres undefined) | 15.3 µM (inactive) | 12.4 µM (inactive) | 17.6 µM (inactive) | 18.3 µM (inactive) | 18.4 µM | 19.4 µM (inactive) | 15 µM (inactive) | 18.4 µM (inactive) | 15.8 µM (inactive) | 15.1 µM (inactive) | – | 15.8 µM (inactive) | 9.82 µM (inactive) | 15.6 µM (inactive) | 17.7 µM (inactive) | 15.3 µM (inactive) | – | 17.1 µM (inactive) | 15.1 µM (inactive) | 14.4 µM (inactive)
